The target in this assay is T1, human B1 (Homo sapiens, UniProt P46663).
T1 construct: host or cells: CHO-K1
T1 sequence (P46663 1-353): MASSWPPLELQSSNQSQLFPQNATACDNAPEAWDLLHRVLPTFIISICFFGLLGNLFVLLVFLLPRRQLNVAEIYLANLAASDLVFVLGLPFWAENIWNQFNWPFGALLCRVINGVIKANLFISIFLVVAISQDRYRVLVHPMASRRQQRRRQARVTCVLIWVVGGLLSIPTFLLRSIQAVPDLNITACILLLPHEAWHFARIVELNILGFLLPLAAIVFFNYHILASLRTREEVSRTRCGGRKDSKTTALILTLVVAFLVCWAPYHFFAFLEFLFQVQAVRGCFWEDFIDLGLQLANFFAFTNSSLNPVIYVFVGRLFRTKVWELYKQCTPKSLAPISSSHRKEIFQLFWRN
In words: Calcium flux assay for Bradykinin B1 antagonist, CHO-K1 cell line expressing human B1. As to conditions: CHO-K1 cells expressing human B1, agonist Lys-(Des-Arg)-Bradykinin, read-out: Potency (IC50 value against human B1). The format is cell-based. As for the experimental part:
Calcium Flux Assay for Bradykinin B1 Antagonist
The potency to inhibit the Bradykinin B1 receptors was determined for the compounds of this invention in a cell-based fluorescent calcium-mobilization assay. The assay measures the ability of test compounds to inhibit Bradykinin B1 receptor agonist-induced increase of intracellular free Ca^2+ in cell lines expressing B1.
The change of the intracellular Ca^2+ concentration is monitored with a specifically designed fluorescent plate reader (FlexStation, Molecular Devices).
CHO-K1 cell line expressing human B1 was purchased from Euroscreen (Gosselies, Belgium, with reference name hBl-D1). CHO-K1 cell lines expressing rat B1 or mouse B1 were established in the following way: the full-length receptor-coding cDNA clones were obtained by PCR performed on rat or mouse brain cDNAs. The respective cDNAs were cloned into an expression vector under the control of a CMV promotor. The resultant plasmids were introduced into CHO-K1 cells with liposome technology (FuGENE; Roche Diagnostics, Basel), according to the standard protocols described by the manufacturer. Cell lines expressing a Bradykinin receptor were selected in the culture medium containing 400 μg/ml G418 (Sigma). From selected cell populations, monoclonal cell lines were isolated by single cell cloning. The expression of Bradykinin receptors was confirmed by immunofluorescence staining of the cells, as well as by calcium flux assay.
Human B1-expressing cells were grown in Nutrient Mixture Ham's F12 (Sigma) containing 10% Foetal bovine serum (Sigma) and 400 μg/ml G418 (Sigma), 5 μg/ml puromycim (Sigma); Rat B1 and mouse B1-expressing cells were grown in DMEM/F12 medium (Sigma) containing 10% Foetal bovine serum (Sigma) and 400 μg/ml G418 (Sigma).
For the calcium flux assay, 80% confluent cells were detached from the culture vessels with Versene (Gibco; for human B1 cell-line) or with 1× trypsin-EDTA solution (Sigma; for rodent B1 cell-line), and seeded into 384-well plates (Cell binding Surface; Corning, N.Y.; #3683) at a density of 15,000 cells per well for human B1 or at a density of 20,000 cells per well for rodent B1. Cells were seeded in a volume of 50 μl in medium without antibiotics and incubated overnight in a humidified atmosphere with 5% CO2 at 37° C. The following day, the medium was replaced with 20 μl of 5 μM Fluo-4AM dye (Molecular Probes) in assay buffer (2.5 mM probenicid, 1 mg/ml pluronic acid, 0.1% BSA, 135 mM NaCl, 5 mM KCl, 1.8 mM CaCl, 1 mM MgCl2, 10 mM HEPES, 5.6 mM glucose, 0.05% gelatine, pH 7.4). The calcium indicator loaded cells were incubated at 37° C. for 2 hrs. Extracellular dye was then removed and each well was filled with 45 μl of assay buffer. Cell plates were kept in dark until used. Test compounds were assayed at 8 concentrations in triplicate. Serial 10-fold dilutions in 100% DMSO were made at a 100-times higher concentration than the final concentration, and then diluted 1:10 in assay buffer. 5 μl of each diluted compound was added to the well of cell plates (yielding final concentration with 1% DMSO), and incubated for 30 min at 25° C. before the addition of B1 agonist on the FlexStation.
The addition of agonist 20 μl per well to the assay plate was carried out on the FlexStation while continuously monitoring Ca^2+-dependent fluorescence at 538 nm. The integrated values, normalized with the background fluorescence, were plotted against the logarithm of the antagonist concentrations.
On the technique in general: Calcium assays in cells follow changes in intracellular calcium, usually with a dye or a luminescent sensor.

Broadly, the IC50 is the point on the concentration scale where inhibition reaches its midpoint.

In the case of `COc1cc(C)c(S(=O)(=O)N(C)Cc2cc(C(=O)N3CCN(C4CCN(C)CC4)CC3)co2)c(C)c1` [Ex 1, 4-Methoxy-N,2,6-trimethyl-N-[(4-{[4-(1-methylpiperidin-4-yl)piperazin-1-yl]carbonyl}furan-2-yl)methyl]benzenesulfonamide], the IC50 lay in the range of 100 to 1000 nM.

Consider `COc1cc(C)c(S(=O)(=O)N(C)Cc2cc(C(=O)N(C)Cc3ccc(-n4ccnc4)cc3)co2)c(C)c1` [Ex 2, N-[4-(1H-imidazol-1-yl)benzyl]-5-({[(4-methoxy-2,6-dimethylphenyl)sulfonyl](methyl)amino}methyl)-N-methylfuran-3-carboxamide], for which the 50% inhibitory concentration (IC50) lay in the range of 100 to 1000 nM.

Take `COc1cc(C)c(S(=O)(=O)N(C)Cc2cc(C(=O)NC3CC(C)(C)N(C)C(C)(C)C3)co2)c(C)c1` [Ex 3, 5-({[(4-methoxy-2,6-dimethylphenyl)sulfonyl](methyl)amino}methyl)-N-(1,2,2,6,6-pentamethylpiperidin-4-yl)furan-3-carboxamide]: the IC50 is 100 to 1000 nM.

As to `COc1cc(C)c(S(=O)(=O)N(C)Cc2cc(C(=O)NCCc3ccc(C4=NCCN4)cc3)co2)c(C)c1` [Ex 4, N-{2-[4-(4,5-dihydro-1H-imidazol-2-yl)phenyl]ethyl}-5-({[(4-methoxy-2,6-dimethylphenyl)sulfonyl](methyl)amino}methyl)furan-3-carboxamide], the IC50 was less than 10 nM.

In the case of `COc1cc(C)c(S(=O)(=O)N(C)Cc2cc(C(=O)N(C)CCc3ccc(C4=NCCN4)cc3)co2)c(C)c1` [Ex 5, N-{2-[4-(4,5-dihydro-1H-imidazol-2-yl)phenyl]ethyl}-5-({[(4-methoxy-2,6-dimethylphenyl)sulfonyl](methyl)amino}methyl)-N-methylfuran-3-carboxamide], the IC50 is less than 10 nM.

For `COc1cc(C)c(S(=O)(=O)N(C)Cc2cc(C(=O)NCc3ccc(C4=NCCN4)cc3)co2)c(C)c1` [Ex 6, N-[4-(4,5-dihydro-1H-imidazol-2-yl)benzyl]-5-({[(4-methoxy-2,6-dimethylphenyl)sulfonyl](methyl)amino}methyl)furan-3-carboxamide], the IC50 was 10 to 100 nM.

For the compound `COc1cc(C)c(S(=O)(=O)N(C)Cc2cc(C(=O)NCCc3ccc(C4=NC(C)CN4)cc3)co2)c(C)c1` (centres unmarked) [Ex 7, 5-({[(4-methoxy-2,6-dimethylphenyl)sulfonyl](methyl)amino}methyl)-N-{2-[4-(4-methyl-4,5-dihydro-1H-imidazol-2-yl)phenyl]ethyl}furan-3-carboxamide], the IC50 was less than 10 nM.

For `COc1cc(C)c(S(=O)(=O)N(C)Cc2cc(C(=O)N(C)Cc3cccc(CN4CCCC4)c3)co2)c(C)c1` [Ex 8, 5-({[(4-methoxy-2,6-dimethylphenyl)sulfonyl](methyl)amino}methyl)-N-methyl-N-[3-(pyrrolidin-1-ylmethyl)benzyl]furan-3-carboxamide], the IC50 lay within 10 to 100 nM.

On to `COc1cc(C)c(S(=O)(=O)N(C)Cc2cc(C(=O)N(C)Cc3ccc(CN4CCCC4)cc3)co2)c(C)c1` [Ex 9, 5-({[(4-methoxy-2,6-dimethylphenyl)sulfonyl](methyl)amino}methyl)-N-methyl-N-[4-(pyrrolidin-1-ylmethyl)benzyl]furan-3-carboxamide], for which the IC50 fell in the range of 10 to 100 nM.

As for `COc1cc(C)c(S(=O)(=O)N(C)Cc2cc(C(=O)N(C)Cc3ccc(C4=NCCCN4)cc3)co2)c(C)c1` [Ex 10, 5-({[(4-methoxy-2,6-dimethylphenyl)sulfonyl](methyl)amino}methyl)-N-methyl-N-[4-(1,4,5,6-tetrahydropyrimidin-2-yl)benzyl]furan-3-carboxamide], the IC50 was in the range of 10 to 100 nM.

In the case of `COc1cc(C)c(S(=O)(=O)N(C)Cc2cc(C(=O)NCc3cccc(CN4CCCC4)c3)co2)c(C)c1` [Ex 11, 5-({[(4-methoxy-2,6-dimethylphenyl)sulfonyl](methyl)amino}methyl)-N-[3-(pyrrolidin-1-ylmethyl)benzyl]furan-3-carboxamide], the IC50 was in the range of 100 to 1000 nM.

(Values after patent US8623859B2, “Bradykinin B1 antagonists” (Evotec AG, priority 2008, dated 2014).)
